Q: For `NS(=O)(=O)Cc1noc2ccccc12`, which solubility (mole fraction) (in DMF, 278.15 K) is on record?
A: 0.0292

Q: And the solubility (mole fraction) (in DMF, 283.15 K)?
A: 0.0356

Q: What about the solubility (mole fraction) (in DMF, 288.15 K) of the same compound?
A: 0.0428

Q: What about the solubility (mole fraction) (in DMF, 293.15 K) of the same compound?
A: 0.0514

Q: And the solubility (mole fraction) (in DMF, 298.15 K)?
A: 0.0612

Q: And the solubility (mole fraction) (in DMF, 303.15 K)?
A: 0.0721

Q: What about the solubility (mole fraction) (in DMF, 308.15 K) of the same compound?
A: 0.0852

Q: What about the solubility (mole fraction) (in DMF, 313.15 K) of the same compound?
A: 0.101

Q: And the solubility (mole fraction) (in DMF, 318.15 K)?
A: 0.118

Q: What about the solubility (mole fraction) (in DMF, 323.15 K) of the same compound?
A: 0.136

Q: What about the solubility (mole fraction) (in acetonitrile, 278.15 K) of the same compound?
A: 0.00682

Q: And the solubility (mole fraction) (in acetonitrile, 283.15 K)?
A: 0.00802

Q: And the solubility (mole fraction) (in acetonitrile, 288.15 K)?
A: 0.00937

Q: What about the solubility (mole fraction) (in acetonitrile, 293.15 K) of the same compound?
A: 0.0108

Q: What about the solubility (mole fraction) (in acetonitrile, 298.15 K) of the same compound?
A: 0.0124

Q: What about the solubility (mole fraction) (in acetonitrile, 303.15 K) of the same compound?
A: 0.0142

Q: And the solubility (mole fraction) (in acetonitrile, 308.15 K)?
A: 0.0162

Q: And the solubility (mole fraction) (in acetonitrile, 313.15 K)?
A: 0.0183

Q: What about the solubility (mole fraction) (in acetonitrile, 318.15 K) of the same compound?
A: 0.0207

Q: And the solubility (mole fraction) (in acetonitrile, 323.15 K)?
A: 0.0233

Q: What about the solubility (mole fraction) (in ethanol, 278.15 K) of the same compound?
A: 0.00139

Q: What about the solubility (mole fraction) (in ethanol, 283.15 K) of the same compound?
A: 0.00162

Q: What about the solubility (mole fraction) (in ethanol, 288.15 K) of the same compound?
A: 0.00185

Q: What about the solubility (mole fraction) (in ethanol, 293.15 K) of the same compound?
A: 0.00215

Q: What about the solubility (mole fraction) (in ethanol, 298.15 K) of the same compound?
A: 0.00245

Q: What about the solubility (mole fraction) (in ethanol, 303.15 K) of the same compound?
A: 0.00279

Q: What about the solubility (mole fraction) (in ethanol, 308.15 K) of the same compound?
A: 0.00316

Q: And the solubility (mole fraction) (in ethanol, 313.15 K)?
A: 0.00356

Q: And the solubility (mole fraction) (in ethanol, 318.15 K)?
A: 0.004

Q: What about the solubility (mole fraction) (in ethanol, 323.15 K) of the same compound?
A: 0.00446

Q: What about the solubility (mole fraction) (in isopropanol, 278.15 K) of the same compound?
A: 0.000797

Q: What about the solubility (mole fraction) (in isopropanol, 283.15 K) of the same compound?
A: 0.000963

Q: What about the solubility (mole fraction) (in isopropanol, 288.15 K) of the same compound?
A: 0.00115

Q: What about the solubility (mole fraction) (in isopropanol, 293.15 K) of the same compound?
A: 0.00137

Q: What about the solubility (mole fraction) (in isopropanol, 298.15 K) of the same compound?
A: 0.00163

Q: What about the solubility (mole fraction) (in isopropanol, 303.15 K) of the same compound?
A: 0.00192

Q: And the solubility (mole fraction) (in isopropanol, 308.15 K)?
A: 0.00226

Q: What about the solubility (mole fraction) (in isopropanol, 313.15 K) of the same compound?
A: 0.00264

Q: What about the solubility (mole fraction) (in isopropanol, 318.15 K) of the same compound?
A: 0.00306

Q: And the solubility (mole fraction) (in isopropanol, 323.15 K)?
A: 0.00352

Q: And the solubility (mole fraction) (in water, 278.15 K)?
A: 1.78e-05

Q: What about the solubility (mole fraction) (in water, 283.15 K) of the same compound?
A: 2.5e-05

Q: What about the solubility (mole fraction) (in water, 288.15 K) of the same compound?
A: 3.43e-05

Q: What about the solubility (mole fraction) (in water, 293.15 K) of the same compound?
A: 4.67e-05

Q: What about the solubility (mole fraction) (in water, 298.15 K) of the same compound?
A: 6.49e-05

Q: And the solubility (mole fraction) (in water, 303.15 K)?
A: 8.56e-05

Q: What about the solubility (mole fraction) (in water, 308.15 K) of the same compound?
A: 0.000112

Q: And the solubility (mole fraction) (in water, 313.15 K)?
A: 0.00015

Q: And the solubility (mole fraction) (in water, 318.15 K)?
A: 0.000196

Q: And the solubility (mole fraction) (in water, 323.15 K)?
A: 0.000256

Reference: BigSolDB 2.1
